Source: patent US8039585B2, “Therapeutic administration of the scrambled anti-angiogenic peptide C16Y” (The United States of America as represented by the …, priority 2004, dated 2011)
Like-named read-outs stand apart in the source and are kept apart here.

How the values were obtained:
[1] = system: MDA-MB 231 breast tumor cells; format: in vivo, chick; details: for Average tumor weight: 7 day incubation
Procedure: FIG. 6: Inhibition of CAM tumor growth by C16Y. MDA-MB 231 breast tumor cells were mixed with C16 or C16Y peptides (at either 50 or 100 μg/ml), then mixed with 1:1 with neutralized collagen I solution. The collagen I gel was overlayed with the CAM of a 7-day-old embryo for 7 days, after which the membrane was fixed and tumor cells were removed and weighed. In the absence of either peptide, average tumor weight was 5.40±0.59 mg. […] C16Y peptide inhibited tumor growth by approximately 40% at both concentrations tested. Bars represent ±SD.
The effect of C16Y on tumor growth in vivo was analyzed using the CAM assay (Gho 2001). MDA-MB 231 breast tumor cells (a gift of Dan Welch, Pennsylvania State University, University Park, Pa.) (1×10^6 cells/0.1 ml) in RPMI 1640 were mixed with 0, 50, or 100 μg/ml of C16 or C16Y, and then mixed 1:1 with a neutralized collagen I solution (4.6 mg/ml collagen type 1). This collagen I gel was overlayed with the CAM of a 7-day-old embryo. After a 7 day incubation, the membrane was fixed and tumor cells were removed and weighed. This experiment was repeated twice, with each data point tested in at least six replicates.

[2] = system: MDA-MB 231 breast cancer cells; test: Primary tumor growth in nude mice (s.c. MDA-MB 231); format: in vivo; details: 1 mg/day i.p.
Procedure: FIG. 7: Inhibition of primary tumor growth by C16Y. MDA-MB 231 cancer cells were injected subcutaneously (s.c.) into nude mice and the tumors were allowed to grow until they reached 200-300 mm^3. Mice were then treated daily for 7-10 days with C16 (1 mg/day) or C16Y peptides (0.2, 0.5, or 1 mg/day) by intraperitoneal (i.p.) injection. Control mice were injected with water only. Tumor size was measured at 0, 3, 6, and 9 days after peptide injections began. A. Mice were treated with 1 mg/day of either C16 or C16Y peptide for 10 days. […] B. Mice were treated with C16Y peptide at varying concentrations for 7 days. C16Y decreased tumor size at all concentrations tested during the 7 days it was administered. Tumor growth resumed when administration of the C16Y peptide was halted, with tumor size increasing more rapidly in mice treated with lower dosages of C16Y. Bars represent ±SD.
MDA-MB 231 breast cancer cells (5×10^5 cells) mixed with Matrigel (1:4) were injected subcutaneously (s.c.) into nude mice. […] Tumor growth was monitored with a caliper, with measurements being taken on days 0, 3, 6, and 9 after the first peptide injection. Tumor volume was determined using the formula width^2×length×0.52. […] Vessel number was determined by staining sections with a CD-31 antibody (Nomizu 2001) and counting 6 fields per section per mouse (n=2 section/mouse; total 3 mice).

[3] = system: C16-induced angiogenesis in the chick CAM; test: CAM assay, C16-induced angiogenesis; format: in vivo; details: peptide alone (C16: 0.5 μg)
Procedure: FIG. 4: Inhibition of C16-induced angiogenesis by C16Y. 0.5 μg of angiogenic stimulator (C16 peptide) and varying concentrations of either C16S or C16Y peptides were applied to 10-day-old embryonated eggs in 5 μl of water. After 3 days, microphotographs were taken of the eggs to determine angiogenesis levels. Negative control eggs were treated with water only (panel a), while positive control eggs were treated with bFGF only (not shown). As expected, C16 peptide administered alone stimulated angiogenesis (panel d). […] When the amount of inhibitor peptide was lowered to 0.05 μg, C16Y peptide continued to inhibit angiogenesis (panel f), while C16S peptide had no effect (panel c).
The CAM assay was performed using 10-day-old embryonated eggs (CBT, Charlestown, Md.) as described previously (Gho 1999). On embryonal day 3, approximately 4 ml of ovalbumin was removed from each egg. After opening windows on embryonal day 10, the angiogenic stimulus (C16) and test competitor peptides in 5 μl of distilled water were applied to the CAM after drying on 13-mm diameter quartered plastic coverslips (Thermanox; Nalge, NUNC International, Naperville, Ill.). Three days later, the eggs were scored for a positive response and photographed. The positive control was bFGF, and the negative control was the vehicle water. Experiments were repeated twice using a minimum of 11 eggs for each data point.

MDA-MB 231 cells = test: Tumor cell proliferation assay (Cell Titer 96 Aqueous); format: cell-based; details: 100 μg/ml, 2-72 hours
Procedure: A proliferation assay was performed to determine whether the tumor inhibition discussed in Example 6 was the result of angiogenesis inhibition or some effect on cell proliferation. Proliferation of MDA-MB 231 cells was quantified using a Cell Titer 96 Aqueous Cell Proliferation assay kit (Promega, Madison, Wis.). Cells were plated on four 96-well dishes at 5×10^3 cells/well and cultured in AIM-V serum-free medium (Life Technologies, Inc., Gaithersburg, Md.). After 1 hour, peptides C16 and C16Y were added at a final concentration of 100 μg/ml. A separate dish was used to quantitate proliferation at 2, 24, 48, and 72 hours by reading absorbance at 490 nm on an Emax plate reader. Each experiment was repeated in triplicate two times.

HUVECs = test: Endothelial cell tube-forming assay on Matrigel; format: cell-based, human; set-up: key to Disruption of tube formation / Activity (tube formation, truncated C16Y peptides): +: tubes slightly affected; ++: tubes moderately affected; +++: tubes disrupted; ++++: tubes completely disrupted; −: tubes resemble control; details: for Disruption of tube formation: 16 hours
Procedure: FIG. 3: Disruption of endothelial cell tube formation by C16Y peptide. 48-well plates were coated with 200 μl of Matrigel per well. Each well was treated with RPMI containing 24,000 human umbilical vein endothelial cells (HUVECS) and 100 mg/L endothelial cell growth factor in the presence of 10-75 μg/ml of C16 or scrambled C16 peptide for 16 hours. Control wells contained medium only. Cells were fixed and stained, and tube formation was scored by a blinded observer.
Tube-forming assays were performed as described previously (Ponce 2001). 48-well plates were coated with 200 μl/well of Matrigel (Gho 2001; Kubota 1988), a basement membrane matrix. HUVECs (24,000 cells/well) were plated in RPMI 1640 containing 10% bovine calf serum, defined and supplemented (HyClone Laboratories, Inc., Logan, Utah), along with 100 mg/liter of endothelial cell growth factor (Collaborative Biomedical). C16 or scrambled C16 peptides were added at concentrations ranging from 10-75 μg/ml. Control wells contained medium only. After 16 hours, cells were fixed and stained with Diff-Quick fixative (methanol) and solution II (6.25% (w/v) each of azure A and methylene blue) (Dade A G, Dudingen, Switzerland), and tube formation was scored by a blinded observer. Each peptide was tested at least in triplicate, and the assays were repeated a minimum of three times.
Tube formation assays were repeated using truncated versions of the C16Y peptide to determine the minimal active sequence of the peptide. The carboxyl end of C16Y was not necessary for activity, whereas the amino terminal aspartic acid was required. The minimal active sequence for the C16Y peptide is shown in SEQ ID NO: 2. Each of the peptides containing at least this 8 amino acid sequence (SEQ ID NOs: 1-5) inhibited tube formation.

KAFDITYVRLKF [Peptide C16, angiogenic peptide from the γ1 chain of laminin-1]
Average tumor weight ([1]; 50 μg/ml peptide): 5.45 ± 0.84 mg | Average tumor weight ([1]; 100 μg/ml peptide): 5.85 ± 0.54 mg | Vessels observed in tumors ([1]; P≦0.027): 9.6±0.23 | Tumor size relative to original size ([2]; 7 days, stated jointly with control mice): 1.7-2.5 times their original size | Tumor growth ([2]; after 7 days): did not significantly affect tumor growth | Angiogenesis with peptide administered alone [3]: capable of inducing angiogenesis | Effect on MDA-MB 231 cell proliferation (MDA-MB 231 cells): Neither C16 nor C16Y altered MDA-MB 231 cell proliferation | Dose at which tube formation is disrupted (lowest active) (HUVECs; 10-75 μg/ml tested): 50 µg/mL | Disruption of tube formation (HUVECs; peptide concentration 10 μg/ml): − | Disruption of tube formation (HUVECs; peptide concentration 25 μg/ml): − | Disruption of tube formation (HUVECs; peptide concentration 50 μg/ml): + | Disruption of tube formation (HUVECs; peptide concentration 75 μg/ml): +++
